Source: PubChem BioAssay (NCI)
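These data come from cells grown in 96-well plates and exposed to compound for 48 hours at five concentrations. GI50: concentration for 50% inhibition of growth. The concentration for full growth arrest is given as TGI.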

Columns and labels:
Assay in all cases: growth of human tumour cells (NCI), 48 h
NCI-H23 lung = system: NCI-H23 lung
A498 renal = system: A498 renal
HT29 colon = system: HT29 colon
SNB-75 CNS = system: SNB-75 CNS
HOP-92 NSCLC = system: HOP-92 NSCLC
NCI-H226 lung = system: NCI-H226 lung
K-562 leukemia = system: K-562 leukemia
ACHN renal = system: ACHN renal
HCT-15 colon = system: HCT-15 colon
MOLT-4 leukemia = system: MOLT-4 leukemia
MDA-MB-435 = system: MDA-MB-435
UACC-62 melanoma = system: UACC-62 melanoma
SW-620 colon = system: SW-620 colon
BT-549 breast = system: BT-549 breast
UO-31 renal = system: UO-31 renal
NCI-H522 lung = system: NCI-H522 lung
HS 578T breast = system: HS 578T breast
TK-10 renal = system: TK-10 renal
HCC-2998 colon = system: HCC-2998 colon
EKVX NSCLC = system: EKVX NSCLC
U251 CNS = system: U251 CNS
SK-MEL-28 melanoma = system: SK-MEL-28 melanoma
HCT-116 colon = system: HCT-116 colon
RPMI-8226 leukemia = system: RPMI-8226 leukemia
OVCAR-4 ovarian = system: OVCAR-4 ovarian
SF-539 CNS = system: SF-539 CNS
NCI/ADR-RES ovarian = system: NCI/ADR-RES ovarian
RXF 393 renal = system: RXF 393 renal
MALME-3M melanoma = system: MALME-3M melanoma
SK-MEL-5 melanoma = system: SK-MEL-5 melanoma
KM12 colon = system: KM12 colon
SK-OV-3 ovarian = system: SK-OV-3 ovarian
OVCAR-8 ovarian = system: OVCAR-8 ovarian
DU-145 prostate = system: DU-145 prostate
SF-295 CNS = system: SF-295 CNS
CCRF-CEM leukemia = system: CCRF-CEM leukemia
IGROV1 ovarian = system: IGROV1 ovarian
UACC-257 melanoma = system: UACC-257 melanoma
OVCAR-5 ovarian = system: OVCAR-5 ovarian
SNB-19 CNS = system: SNB-19 CNS
HL-60(TB) leukemia = system: HL-60(TB) leukemia
MCF7 breast = system: MCF7 breast
NCI-H460 lung = system: NCI-H460 lung
SR leukemia = system: SR leukemia

For `Cc1nn(-c2ccccc2)cc1/C=N/Nc1nc(Nc2ccccc2)nc(Nc2ccc(S(N)(=O)=O)cc2)n1`, the GI50 (NCI-H23 lung) was 1.75 µM, the TGI (NCI-H23 lung) was 3.62 µM and the GI50 (A498 renal) was 1.71 µM. The TGI (A498 renal) was 3.39 µM, the GI50 (HT29 colon) was 2.88 µM and the TGI (HT29 colon) was over 100 µM. For the same compound, the GI50 (SNB-75 CNS) was 2.69 µM, the TGI (SNB-75 CNS) was 8.72 µM and the GI50 (HOP-92 NSCLC) was 2.44 µM. The TGI (HOP-92 NSCLC) was 5.44 µM, the GI50 (NCI-H226 lung) was 1.85 µM and the TGI (NCI-H226 lung) was 4.34 µM. For the same compound, the GI50 (K-562 leukemia) was 2.63 µM, the TGI (K-562 leukemia) was over 100 µM and the GI50 (ACHN renal) was 1.9 µM. It also gave a TGI (ACHN renal) of 3.57 µM, a GI50 (HCT-15 colon) of 2.67 µM and a TGI (HCT-15 colon) of over 100 µM. For the same compound, the GI50 (MOLT-4 leukemia) was 2.29 µM, the TGI (MOLT-4 leukemia) was over 100 µM and the GI50 (MDA-MB-435) was 1.77 µM. For the same compound, the TGI (MDA-MB-435) was 3.46 µM, the GI50 (UACC-62 melanoma) was 1.78 µM and the TGI (UACC-62 melanoma) was 3.57 µM. The GI50 (SW-620 colon) was 3.38 µM, the GI50 (BT-549 breast) was 1.85 µM and the TGI (BT-549 breast) was 4.56 µM. It also gave a GI50 (UO-31 renal) of 1.72 µM, a TGI (UO-31 renal) of 3.54 µM and a GI50 (NCI-H522 lung) of 2.66 µM. It also gave a TGI (NCI-H522 lung) of 8.27 µM, a GI50 (HS 578T breast) of 2.77 µM and a TGI (HS 578T breast) of 8.1 µM. The GI50 (TK-10 renal) was 1.48 µM, the TGI (TK-10 renal) was 3.5 µM and the GI50 (HCC-2998 colon) was 1.88 µM. For the same compound, the TGI (HCC-2998 colon) was 3.63 µM, the GI50 (EKVX NSCLC) was 2 µM and the TGI (EKVX NSCLC) was 5.09 µM. It also gave a GI50 (U251 CNS) of 3.65 µM, a TGI (U251 CNS) of over 100 µM and a GI50 (SK-MEL-28 melanoma) of 1.8 µM. For the same compound, the TGI (SK-MEL-28 melanoma) was 3.46 µM, the GI50 (HCT-116 colon) was 2 µM and the TGI (HCT-116 colon) was 4.52 µM. It also gave a GI50 (RPMI-8226 leukemia) of 1.66 µM, a TGI (RPMI-8226 leukemia) of 5.41 µM and a GI50 (OVCAR-4 ovarian) of 2.56 µM. It also gave a TGI (OVCAR-4 ovarian) of 7.32 µM, a GI50 (SF-539 CNS) of 1.71 µM and a TGI (SF-539 CNS) of 3.27 µM. For the same compound, the GI50 (NCI/ADR-RES ovarian) was over 100 µM, the TGI (NCI/ADR-RES ovarian) was over 100 µM and the GI50 (RXF 393 renal) was 1.77 µM. It also gave a TGI (RXF 393 renal) of 3.39 µM, a GI50 (MALME-3M melanoma) of 1.6 µM and a TGI (MALME-3M melanoma) of 3.13 µM. For the same compound, the GI50 (SK-MEL-5 melanoma) was 1.48 µM, the TGI (SK-MEL-5 melanoma) was 2.8 µM and the GI50 (KM12 colon) was 2.84 µM. The TGI (KM12 colon) was 8.33 µM, the GI50 (SK-OV-3 ovarian) was 2.93 µM and the TGI (SK-OV-3 ovarian) was 6.61 µM. It also gave a GI50 (OVCAR-8 ovarian) of 2.05 µM, a TGI (OVCAR-8 ovarian) of over 100 µM and a GI50 (DU-145 prostate) of 3.06 µM. For the same compound, the TGI (DU-145 prostate) was 9.48 µM, the GI50 (SF-295 CNS) was 2.23 µM and the TGI (SF-295 CNS) was 5.94 µM. It also gave a GI50 (CCRF-CEM leukemia) of 2.09 µM, a TGI (CCRF-CEM leukemia) of over 100 µM and a GI50 (IGROV1 ovarian) of 2.59 µM. The TGI (IGROV1 ovarian) was 6.7 µM, the GI50 (UACC-257 melanoma) was 2.5 µM and the TGI (UACC-257 melanoma) was 7.43 µM. It also gave a GI50 (OVCAR-5 ovarian) of 2.06 µM, a TGI (OVCAR-5 ovarian) of 5.04 µM and a GI50 (SNB-19 CNS) of 3.44 µM. It also gave a TGI (SNB-19 CNS) of over 100 µM, a GI50 (HL-60(TB) leukemia) of 2.24 µM and a TGI (HL-60(TB) leukemia) of 7.67 µM. The GI50 (MCF7 breast) was 1.55 µM, the TGI (MCF7 breast) was 3.43 µM and the GI50 (NCI-H460 lung) was 2.77 µM. For the same compound, the TGI (NCI-H460 lung) was 7.38 µM, the GI50 (SR leukemia) was 2.45 µM and the TGI (SR leukemia) was over 100 µM.
